This is an account of results in ChEMBL document CHEMBL4373722, “Selective, Small-Molecule Co-Factor Binding Site Inhibition of a Su(var)3-9, Enhancer of Zeste, Trithorax Domain Containing Lysine Methyltransferase” (J Med Chem, 2019).

In data set [1] the target is T1, N-lysine methyltransferase SMYD2 (Homo sapiens, UniProt Q9NRG4). Kind of data set: Inhibition of recombinant human SMYD2 (1 to 433 residues) expressed in baculovirus infected Sf9 insect cells using biotinylated-p53 peptide (361 to 380 residues) as substrate measured after 50 mins in presence of 70 nM [3H]-SAM by scintillation proximity assay.
In data set [2] the target is T1, N-lysine methyltransferase SMYD2. Kind of data set: Inhibition of recombinant human SMYD2 (1 to 433 residues) expressed in baculovirus infected Sf9 insect cells at 40 uM using biotinylated-p53 peptide (361 to 380 residues) as substrate measured after 50 mins in presence of 70 nM [3H]-SAM by scintillation proximity assay relative to control.
A short description of data set [3]: Cytotoxicity against human TERA2D cells up to 10 uM measured after 5 days by IncuCyte zoom live cell analysis. The data set is classed as cell-based. As to conditions: 120 h.
In data set [4] the target is T1, N-lysine methyltransferase SMYD2. Kind of data set: Inhibition of V5-tagged SMYD2 (unknown origin) transfected in human MDA-MB-231 cells co-transfected with FLAG-tagged p53 assessed as reduction in p53 methylation at K370 residue measured after 20 hrs by immunoblot analysis. The data set is classed as cell-based.
Data set [5] has as its target Histone-lysine N-methyltransferase KMT5C (Homo sapiens) (UniProt Q86Y97). Kind of data set: Inhibition of SUV420H2 (unknown origin) at 1 uM using biotin-labeled peptide as substrate and [3H]-SAM measured after 1 hr by scintillation proximity assay.
For data set [6], the system named is MCF7. Kind of data set: Cytotoxicity against human MCF7 cells up to 10 uM measured after 5 days by IncuCyte zoom live cell analysis. In kind it is cell-based. As to conditions: mcf7, 120 h.
The species entered for data set [7] is Homo sapiens. Kind of data set: Selectivity ratio of IC50 for SUV420H1 in human MCF7 cells to IC50 for V5-tagged SMYD2 (unknown origin) transfected in human MCF7 cells co-transfected with FLAG-tagged p53. The data set is classed as cell-based.
Data set [8] addresses T1, N-lysine methyltransferase SMYD2. Kind of data set: Competitive inhibition of recombinant human SMYD2 (1 to 433 residues) expressed in baculovirus infected Sf9 insect cells using biotinylated-p53 peptide (361 to 380 residues) as substrate measured after 50 mins in presence of varying levels of [3H]-SAM by scintillation proximity assay.
Data set [9] is filed under the species Homo sapiens. Kind of data set: Selectivity ratio of IC50 for SUV420H2 (unknown origin) to IC50 for recombinant human SMYD2 (1 to 433 residues) expressed in baculovirus infected Sf9 insect cells at 40 uM using biotinylated-p53 peptide (361 to 380 residues) as substrate measured after 50 mins in presence of 70 nM [3H]-SAM.
Data set [10] deals with T1, N-lysine methyltransferase SMYD2. Kind of data set: Mixed inhibition of recombinant human SMYD2 (1 to 433 residues) expressed in baculovirus infected Sf9 insect cells using varying levels of biotinylated-p53 peptide (361 to 380 residues) as substrate measured after 50 mins in presence of 2 uM [3H]-SAM by scintillation proximity assay.
Data set [11] has the same target. Kind of data set: Inhibition of V5-tagged SMYD2 (unknown origin) transfected in human U2OS cells co-transfected with FLAG-tagged p53 assessed as reduction in p53 methylation at K370 residue measured after 20 hrs by immunoblot analysis. In kind it is cell-based.
Data set [12] shares this target. Kind of data set: Inhibition of V5-tagged SMYD2 (unknown origin) transfected in human MCF7 cells co-transfected with FLAG-tagged p53 assessed as reduction in p53 methylation at K370 residue measured after 20 hrs by immunoblot analysis. The data set is classed as cell-based.
The species entered for data set [13] is Homo sapiens. Kind of data set: Selectivity ratio of IC50 for SUV420H1 (unknown origin) to IC50 for recombinant human SMYD2 (1 to 433 residues) expressed in baculovirus infected Sf9 insect cells at 40 uM using biotinylated-p53 peptide (361 to 380 residues) as substrate measured after 50 mins in presence of 70 nM [3H]-SAM.
For data set [14], the species on record is Homo sapiens. Kind of data set: Selectivity ratio of IC50 for SUV420H2 in human MCF7 cells to IC50 for V5-tagged SMYD2 (unknown origin) transfected in human MCF7 cells co-transfected with FLAG-tagged p53. In kind it is cell-based.
The target of data set [15] is Histone-lysine N-methyltransferase KMT5C (Homo sapiens) (UniProt Q86Y97). Kind of data set: Inhibition of SUV420H2 in human MCF7 cells assessed as decrease in H4K20me3 level up to 50 uM measured after 2 days by immunoblot analysis. The data set is classed as cell-based.
Data set [16] concerns the target T1, N-lysine methyltransferase SMYD2. Kind of data set: Inhibition of V5-tagged SMYD2 (unknown origin) transfected in human MCF7 cells co-transfected with FLAG-tagged p53 assessed as reduction in p53 methylation at K370 residue at 10 uM measured after 20 hrs by immunoblot analysis relative to control. The data set is classed as cell-based.
Data set [17] shares this target. Kind of data set: Inhibition of recombinant human SMYD2 (1 to 433 residues) expressed in baculovirus infected Sf9 insect cells using biotinylated-p53 peptide (361 to 380 residues) as substrate measured after 120 mins in presence of 20 uM [3H]-SAM by scintillation proximity assay.
For data set [18] the target is unchanged. Kind of data set: Inhibition of V5-tagged SMYD2 (unknown origin) transfected in HEK293 cells co-transfected with FLAG-tagged p53 assessed as reduction in p53 methylation at K370 residue measured after 20 hrs by immunoblot analysis. The data set is classed as cell-based.
Data set [19] has as its system U2OS. Kind of data set: Cytotoxicity against human U2OS cells up to 10 uM measured after 5 days by IncuCyte zoom live cell analysis. In kind it is cell-based. As to conditions: 120 h.
The target in data set [20] is Histone-lysine N-methyltransferase KMT5B (Homo sapiens) (UniProt Q4FZB7). Kind of data set: Inhibition of SUV420H1 (unknown origin) at 1 uM using biotin-labeled peptide as substrate and [3H]-SAM measured after 1 hr by scintillation proximity assay.
The target of data set [21] is T1, N-lysine methyltransferase SMYD2. Kind of data set: Inhibition of V5-tagged SMYD2 (unknown origin) transfected in human CAL120 cells co-transfected with FLAG-tagged p53 assessed as reduction in p53 methylation at K370 residue measured after 20 hrs by immunoblot analysis. The data set is classed as cell-based.
In data set [22] the target is Histone-lysine N-methyltransferase KMT5B (Homo sapiens) (UniProt Q4FZB7). Kind of data set: Inhibition of SUV420H1 in human MCF7 cells assessed as decrease in H4K20me3 level up to 50 uM measured after 2 days by immunoblot analysis. The data set is classed as cell-based.
Data set [23] deals with T1, N-lysine methyltransferase SMYD2. Kind of data set: Inhibition of V5-tagged SMYD2 (unknown origin) transfected in human HeLa cells co-transfected with FLAG-tagged p53 assessed as reduction in p53 methylation at K370 residue measured after 20 hrs by immunoblot analysis. The data set is classed as cell-based.
The nature of data set [24]: Lipophilicity, log D of the compound. As to conditions: octanol/water. In kind it is physicochemical.
Data set [25] has as its system MCF7. Kind of data set: Effect on total p53 level in human MCF7 cells co-transfected with V5-tagged SMYD2/FLAG-tagged p53 up to 30 uM measured after 20 hrs by immunoblot analysis. The data set is classed as ADME, cell-based. The conditions noted are these: mcf7, 20 h.
Data set [26] has as its target T1, N-lysine methyltransferase SMYD2. Kind of data set: Inhibition of V5-tagged SMYD2 (unknown origin) transfected in human MCF7 cells co-transfected with FLAG-tagged p53 assessed as reduction in p53 methylation at K370 residue at 30 uM measured after 20 hrs by immunoblot analysis. In kind it is cell-based.
Data set [27] has the same target. Kind of data set: Inhibition of V5-tagged SMYD2 (unknown origin) transfected in human MCF7 cells co-transfected with FLAG-tagged p53 assessed as reduction in p53 methylation at K370 residue at 10 to 30 uM measured after 20 hrs by immunoblot analysis. In kind it is cell-based.
The target is the same in data set [28]. As to conditions: MCF7, 1 uM.
Description: Inhibition of V5-tagged SMYD2 (unknown origin) transfected in human MCF7 cells co-transfected with FLAG-tagged p53 assessed as reduction in p53 methylation at K370 residue at 1 uM measured after 20 hrs by immunoblot analysis relative to control

Molecules are shown by their SMILES. Calls of active or inactive are those of the source. The rule behind the calls is not given here. Some results are limits rather than exact numbers.

T1 sequence (Q9NRG4 whole entry, the tested form may be a part): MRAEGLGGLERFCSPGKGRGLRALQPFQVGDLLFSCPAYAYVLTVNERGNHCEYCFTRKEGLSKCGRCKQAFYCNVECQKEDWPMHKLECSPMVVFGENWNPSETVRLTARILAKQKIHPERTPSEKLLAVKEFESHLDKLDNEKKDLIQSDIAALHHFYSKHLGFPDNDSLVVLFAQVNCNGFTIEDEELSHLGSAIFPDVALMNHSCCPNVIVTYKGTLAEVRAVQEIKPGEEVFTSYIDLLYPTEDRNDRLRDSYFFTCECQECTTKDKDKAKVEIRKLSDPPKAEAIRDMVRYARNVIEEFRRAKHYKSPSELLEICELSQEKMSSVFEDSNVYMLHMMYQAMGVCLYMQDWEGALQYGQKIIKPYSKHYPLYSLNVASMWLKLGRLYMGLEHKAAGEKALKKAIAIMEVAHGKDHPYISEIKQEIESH
Histone-lysine N-methyltransferase KMT5C (Homo sapiens), sequence (Q86Y97 whole entry, looked up): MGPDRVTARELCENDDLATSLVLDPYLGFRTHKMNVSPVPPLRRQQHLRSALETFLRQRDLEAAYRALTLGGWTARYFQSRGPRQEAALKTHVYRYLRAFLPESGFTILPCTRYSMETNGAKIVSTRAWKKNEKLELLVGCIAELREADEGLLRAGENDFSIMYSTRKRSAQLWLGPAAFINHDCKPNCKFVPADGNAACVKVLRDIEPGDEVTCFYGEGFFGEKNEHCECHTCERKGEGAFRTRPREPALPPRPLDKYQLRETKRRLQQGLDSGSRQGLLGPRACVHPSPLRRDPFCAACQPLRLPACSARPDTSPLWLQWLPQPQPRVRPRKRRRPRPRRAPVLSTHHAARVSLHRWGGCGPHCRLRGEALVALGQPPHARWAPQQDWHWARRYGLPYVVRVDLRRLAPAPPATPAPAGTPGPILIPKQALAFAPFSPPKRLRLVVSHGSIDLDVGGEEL
Histone-lysine N-methyltransferase KMT5B (Homo sapiens), sequence (Q4FZB7 whole entry, looked up): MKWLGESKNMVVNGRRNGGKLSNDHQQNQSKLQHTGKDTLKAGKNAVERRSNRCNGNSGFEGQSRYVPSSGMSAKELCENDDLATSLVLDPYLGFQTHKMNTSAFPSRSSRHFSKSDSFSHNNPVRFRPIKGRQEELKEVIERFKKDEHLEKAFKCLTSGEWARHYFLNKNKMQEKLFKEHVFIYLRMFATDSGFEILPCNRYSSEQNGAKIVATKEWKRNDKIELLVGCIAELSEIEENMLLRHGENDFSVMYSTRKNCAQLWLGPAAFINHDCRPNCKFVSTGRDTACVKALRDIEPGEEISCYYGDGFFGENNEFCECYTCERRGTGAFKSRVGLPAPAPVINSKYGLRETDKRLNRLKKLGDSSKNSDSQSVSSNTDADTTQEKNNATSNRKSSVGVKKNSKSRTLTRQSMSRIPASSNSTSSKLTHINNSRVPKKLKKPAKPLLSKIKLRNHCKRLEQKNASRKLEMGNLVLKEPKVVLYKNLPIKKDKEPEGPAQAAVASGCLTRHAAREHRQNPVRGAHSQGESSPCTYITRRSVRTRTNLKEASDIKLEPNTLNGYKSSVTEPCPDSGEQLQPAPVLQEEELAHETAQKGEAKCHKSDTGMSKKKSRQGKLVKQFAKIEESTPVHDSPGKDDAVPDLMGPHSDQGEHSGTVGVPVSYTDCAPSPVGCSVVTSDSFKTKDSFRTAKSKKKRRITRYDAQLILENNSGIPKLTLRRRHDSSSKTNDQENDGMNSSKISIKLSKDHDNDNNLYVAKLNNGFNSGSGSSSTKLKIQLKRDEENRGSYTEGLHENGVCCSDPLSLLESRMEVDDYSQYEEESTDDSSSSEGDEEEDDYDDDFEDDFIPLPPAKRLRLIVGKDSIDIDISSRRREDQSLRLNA

In the case of `CC(C)N1CCN(Cc2cc(C(=O)N3CC(n4cnc5c(N)ncnc54)C3)nn2C)CC1`, the 50% inhibitory concentration (IC50) in data set [1] was found to be 760 nM. The inhibition in data set [2] is over 50%.
For `Cc1cc2c(ncn2C2(C)CN(C(=O)c3ccn(CC4CCN([C@H]5C=CCCCC5)CC4)c3)C2)c(N)n1`, the Activity entry in data set [3], in [6] and in data set [19] was “Non-Toxic” throughout. In addition, the half-maximal inhibitory concentration (IC50) in data set [4] is 1300 to 3000 nM; in data set [1], 8 nM; in [11], 1300 to 3000 nM; in data set [12], 1300 nM; in data set [17], 16 nM; in [18], 1300 to 3000 nM. The IC50 in data set [21] and in [23] was 1300 to 3000 nM each time. Moreover, the inhibition entry in data set [5], in [8], in [10] and in data set [20] was “Active” in each case. Also, the Ratio IC50 in data set [7] was 30; in data set [9], over 60; in [13] it was over 60; in data set [14] it was 30. The inhibition result in data set [15] and in [22] was “inactive” throughout. For the same molecule, the inhibition in [16] was determined as 100%. In addition, the pH-dependent lipophilicity (logD) in data set [24] turned out to be 1.3.
As to `Cc1nc(N)c2ncn(C3(C)CN(C(=O)c4cc(CN5CCN(C6CCCCCC6)CC5)n(C)n4)C3)c2n1`, the IC50 in [1] is 58 nM; in data set [17] it was 3000 nM.
Taken in the same sequence, the figures for `Cc1nc(N)c2ncn(C3CN(C(=O)c4ccn(CC5CCN(C6CCCCCC6)CC5)c4)C3)c2n1` were 23 nM and 4000 nM.
Consider `Cc1nc(N)c2ncn(C3CN(C(=O)c4ccn(CC5CCN(C6C=CCCCC6)CC5)c4)C3)c2n1` (configuration not stated), for which the IC50 in [1] came to 6 nM; in data set [17], 23 nM. Also, the Activity result in data set [25] is “Non-Toxic”. Further, the inhibition entry in data set [26] is “Active”.
As to `Cc1cc2c(ncn2C2(C)CN(C(=O)c3ccn(CC4CCN([C@@H]5C=CCCCC5)CC4)c3C)C2)c(N)n1`, in data set [27], the inhibition entry is “inactive”.
For `CCN(C(=O)CO)[C@H]1CN(/C(=N\C#N)Nc2cccc(OC(F)F)c2)N=C1c1ccc(Cl)c(Cl)c1`, the inhibition in [28] amounted to 100%.
Turning to `Cc1nc(N)c2ncn(C3CN(C(=O)c4cc(CC5CCN(C6CCCCCC6)CC5)n(C)n4)C3)c2n1`, the values for the IC50 in data set [1] and in data set [17] were 32 nM and 3000 nM, respectively.
